Calls of active or inactive are those of the source. The rule behind the calls is not given here.
Assays:
Vibrio harveyi = assay: Induction of bioluminescence in Vibrio harveyi after 4 hrs by luminescence reporter assay; settings: read-out: IC50 (the source's name)
Bacillus cereus = assay: Inhibition of biofilm formation in Bacillus cereus at 8 uM after 24 hrs by 96-well polyvinylchloride microtiter plate assay; type: functional, organism-based
Salmonella typhimurium = assay: Induction of beta-galactosidase production in Salmonella enterica Typhimurium MET844 after 4 hrs by beta-Gal reporter gene assay; type: functional, organism-based; settings: Salmonella enterica subsp. enterica serovar Typhimurium

Compound | EC50 (Vibrio harveyi) [nM] | Activity (Bacillus cereus) | Activity (Salmonella typhimurium)
CC(=O)OCC(OC(C)=O)C(=O)C(C)=O (stereo unspecified) | 2400 | – | –
CC(=O)C(=O)[C@@H](O)CO | – | Active | –
CC(=O)C(=O)C(O)CO (stereo unspecified) | – | – | Active
CC(=O)OC[C@H](OC(C)=O)C(=O)C(C)=O | 2100 | Active | Active
